Experimental data from the supplement of paper PMC10307832.

Columns and labels:
Experiment in all cases: relative viability (nuclei count vs DMSO), 5 days (fraction); higher = more cells survive
[1] = compound: CCc1c2c(nc3ccc(OC(=O)N4CCC(N5CCCCC5)CC4)cc13)-c1cc3c(c(=O)n1C2)COC(=O)[C@]3(O)CC [Irinotecan] + CS(=O)(=O)N1CCN(Cc2cc3nc(-c4cccc5[nH]ncc45)nc(N4CCOCC4)c3s2)CC1 [Pictilisib] (partner 1 µM)
Outline: (§1)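 Nuclei were stained with Hoechst during a one-step fixation (final 0.05% Triton X-100, 1% formaldehyde, 1 ug/ml Hoechst) carried out 5 days after dosing, then counted on 4× images. The cells, lung cancer lines in 1536-well plates, had been dosed by pin tool the day after seeding with one drug alone or a fixed anchor-drug dose plus five library-drug doses (not always all listed) in √10 steps. Relative viability is the nuclei count in treated wells divided by that in vehicle wells, and each value is the median of duplicate plates.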

[2] = compound: CC[C@@H](C)CNCC(=O)N1CCC2=C([C@@H]1COC3=CC=CC(=C3)C)C=CS2 [RU-SKI 43] + CC(=O)Nc1cccc(-n2c(=O)n(C3CC3)c(=O)c3c(Nc4ccc(I)cc4F)n(C)c(=O)c(C)c32)c1 [Trametinib] (partner 0.02 µM)
Outline: as §1

[3] = compound: CCc1c2c(nc3ccc(OC(=O)N4CCC(N5CCCCC5)CC4)cc13)-c1cc3c(c(=O)n1C2)COC(=O)[C@]3(O)CC [Irinotecan] + O=C(c1cc(Cc2n[nH]c(=O)c3ccccc23)ccc1F)N1CCN(C(=O)C2CC2)CC1 [Olaparib] (partner 8 µM)
Outline: as §1

[4] = compound: CC[C@@H](C)CNCC(=O)N1CCC2=C([C@@H]1COC3=CC=CC(=C3)C)C=CS2 [RU-SKI 43] + C[C@@H](Oc1cc(-c2cnn(C3CCNCC3)c2)cnc1N)c1c(Cl)ccc(F)c1Cl [Crizotinib] (partner 1 µM)
Outline: as §1

Cell Line | relative viability ([1]; first compound 0.6325 µM) | relative viability ([1]; first compound 2 µM) | relative viability ([1]; first compound 6.325 µM) | relative viability ([1]; first compound 20 µM) | relative viability ([2]; first compound 0.1 µM) | relative viability ([2]; first compound 0.3162 µM) | relative viability ([2]; first compound 1 µM) | relative viability ([2]; first compound 3.162 µM) | relative viability ([2]; first compound 10 µM) | relative viability ([3]; first compound 0.6325 µM) | relative viability ([3]; first compound 2 µM) | relative viability ([3]; first compound 6.325 µM) | relative viability ([3]; first compound 20 µM) | relative viability ([4]; first compound 0.1 µM) | relative viability ([4]; first compound 0.3162 µM) | relative viability ([4]; first compound 1 µM) | relative viability ([4]; first compound 3.162 µM) | relative viability ([4]; first compound 10 µM)
NCI-H2228 | 0.408 | 0.562 | 0.399 | 0.395 | 0.37 | 0.55 | 0.466 | 0.396 | 0.306 | 0.496 | 0.486 | 0.451 | 0.486 | 0.498 | 0.416 | 0.448 | 0.579 | 0.306
NCI-H596 | 0.395 | 0.394 | 0.382 | 0.484 | 0.775 | 0.883 | 0.858 | 0.793 | 0.717 | 0.638 | 0.707 | 0.64 | 0.828 | 0.998 | 0.904 | 0.987 | 1.06 | 1.03
NCI-H1648 | – | – | – | – | 0.43 | 0.459 | 0.715 | 0.568 | 0.378 | 0.525 | 0.388 | 0.35 | 0.276 | – | – | – | – | –
NCI-H1395 | – | 0.539 | 0.471 | 0.35 | 1.06 | 1.2 | 1.23 | 0.98 | 0.981 | – | 0.458 | 0.455 | 0.31 | – | – | – | – | –
NCI-H1299 | 0.516 | 0.563 | 0.256 | 0.0872 | – | – | – | – | – | 0.539 | 0.478 | 0.337 | 0.207 | 0.947 | 1.12 | 0.995 | 1.01 | 0.957
NCI-H1703 | 0.236 | 0.308 | 0.381 | 0.221 | – | – | – | – | – | 0.512 | 0.375 | 0.169 | 0.164 | – | 0.734 | 0.61 | 0.594 | 0.381
NCI-H2342 | – | – | – | – | 0.764 | – | 0.842 | 0.896 | 0.778 | 0.412 | 0.386 | 0.352 | 0.384 | – | – | – | – | –
ABC-1 | – | 0.556 | 0.424 | 0.112 | – | – | – | – | – | – | 0.68 | 0.421 | 0.375 | 0.993 | 1.21 | 1.26 | 0.939 | 0.563
NCI-H522 | – | – | – | – | 0.862 | 0.723 | 0.675 | 0.883 | 0.715 | 0.493 | 0.532 | 0.453 | 0.525 | – | – | – | – | –
Calu-6 | 0.573 | 0.417 | 0.219 | 0.0958 | – | – | – | – | – | 0.258 | 0.326 | 0.225 | 0.128 | 0.781 | 0.871 | 0.936 | 0.726 | 0.594
NCI-H1793 | – | 0.259 | 0.189 | 0.29 | 0.439 | 0.386 | 0.435 | 0.473 | 0.479 | – | 0.528 | 0.173 | 0.209 | – | – | – | – | –
